Results published in ChEMBL document CHEMBL1134429, “The development of a potential single photon emission computed tomography (SPECT) imaging agent for the corticotropin-releasing hormone receptor type” (Bioorg Med Chem Lett, 2001).

Target: T1, Corticotropin-releasing factor receptor 1 (Rattus norvegicus, UniProt P35353)
T1 sequence (P35353 whole entry): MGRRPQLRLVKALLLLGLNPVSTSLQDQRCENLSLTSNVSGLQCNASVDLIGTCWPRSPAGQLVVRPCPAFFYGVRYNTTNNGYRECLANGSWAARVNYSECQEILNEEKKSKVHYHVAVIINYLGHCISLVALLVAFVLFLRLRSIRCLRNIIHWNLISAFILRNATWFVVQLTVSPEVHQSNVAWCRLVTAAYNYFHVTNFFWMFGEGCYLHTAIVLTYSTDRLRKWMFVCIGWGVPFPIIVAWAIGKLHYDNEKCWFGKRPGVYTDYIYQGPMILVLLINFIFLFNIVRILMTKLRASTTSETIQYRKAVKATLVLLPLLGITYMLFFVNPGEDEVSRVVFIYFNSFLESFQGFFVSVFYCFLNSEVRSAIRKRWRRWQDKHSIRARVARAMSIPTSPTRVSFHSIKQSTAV
Experiment: Binding affinity towards Corticotropin releasing hormone receptor type 1 of rat cerebellum using [125I]Tyr-sauvagine as radioligand.
Assay type: tissue-based

Ki	Structure (SMILES)
14 nM	CCCN(CC1CC1)c1nc(C)nc(Nc2c(Cl)cc(I)cc2Cl)c1Cl
31 nM	CCCN(CC1CC1)c1nc(C)nc(Nc2c(Cl)cc(Cl)cc2Cl)c1Cl
